# Experimental data from US20260285716A1, “METHODS TO REDUCE CONTAMINATION, BIOFILM, AND FOULING FROM WATER SYSTEMS AND SURFACES” (Aequor Inc., priority 2022, published 2026).
# System: Pseudomonas aeruginosa
# Format: cell-based
substance,measurement,value
butyl acid phosphate [BAP],MBEC (removal of 48-hr biofilm),≤47 ppm
